Reference: US20230002359A1, “PESTICIDALLY ACTIVE FUSED BICYCLIC HETEROAROMATIC COMPOUNDS” (priority 2019, published 2023)

Legend:
Format in all cases: in vivo
[1] = tested on: Plutella xylostella (Diamondback Moth); assay: Example B9: Plutella xylostella (diamondback moth), artificial diet, eggs, 96-well; conditions: 216 h, application rate of 500 ppm, 9 days after infestation, read-out: control in mortality
Protocol: 96-well microtiter plates containing artificial diet were treated with aqueous test solutions, prepared from 10′000 ppm DMSO stock solutions, by a liquid handling robot. After drying, eggs (˜30 per well) were infested onto a netted lid which was suspended above the diet. The eggs hatch and L1 larvae move down to the diet. The samples were assessed for mortality 9 days after infestation.

[2] = tested on: Chilo suppressalis (Striped Rice Stemborer); assay: Example B3: Chilo suppressalis (striped rice stemborer), artificial diet, L2 larvae; conditions: 144 h, application rate of 200 ppm, 6 days after infestation, L2 larvae, read-out: control in at least one of the three categories (mortality, anti-feedant effect, or growth inhibition)
Method in brief: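 Artificial diet in wells was treated with aqueous test solutions diluted from 10'000 ppm DMSO stocks, dried, then infested with 6-8 L2 larvae per well. Mortality, anti-feeding effect and growth inhibition were scored against untreated samples 6 days after infestation; control means any category exceeds the untreated sample.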

[3] = tested on: Plutella xylostella (Diamond Back Moth); assay: Example B4: Plutella xylostella (diamond back moth), artificial diet, eggs, 24-well; conditions: 192 h, application rate of 200 ppm, 8 days after infestation, eggs, read-out: control in at least one of the two categories (mortality or growth inhibition)
Protocol: 24-well microtiter plates with artificial diet were treated with aqueous test solutions prepared from 10′000 ppm DMSO stock solutions by pipetting. After drying, Plutella eggs were pipetted through a plastic stencil onto a gel blotting paper and the plate was closed with it. The samples were assessed for mortality and growth inhibition in comparison to untreated samples 8 days after infestation.

[4] = tested on: Spodoptera littoralis (Egyptian Cotton Leaf Worm); assay: Example B7: Spodoptera littoralis (Egyptian cotton leaf worm), cotton leaf discs sprayed, L1 larvae; conditions: foliar, 72 h, application rate of 200 ppm, 3 days after infestation, L1 larvae, read-out: control in at least one of the three categories (mortality, anti-feedant effect, or growth inhibition)
Method in brief: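 Leaf discs on agar sprayed with aqueous dilutions of 10′000 ppm DMSO stocks, dried, then infested with five L1 larvae. Mortality, anti-feeding and growth inhibition scored versus untreated 3 days after infestation; control given when any category exceeds untreated.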

[5] = tested on: Diabrotica Balteata (Corn Root Worm); assay: Example B1: Diabrotica balteata (corn root worm), maize sprouts sprayed, L2 larvae; conditions: 96 h, application rate of 200 ppm, 4 days after infestation, L2 larvae, read-out: control in at least one of the two categories (mortality or growth inhibition)
Method in brief: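 Maize sprouts on agar were sprayed with aqueous test solutions made from 10′000 ppm DMSO stocks, dried, then infested with 6 to 10 L2 larvae per well. Mortality and growth inhibition were scored against untreated samples 4 days after infestation.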

[6] = tested on: Myzus persicae (Green Peach Aphid); assay: Example B6: Myzus persicae (green peach aphid) intrinsic activity, sucrose solution; conditions: 120 h, test rate of 12 ppm, 5 days after infestation, intrinsic activity, read-out: mortality
Method in brief: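 Compounds from 10′000 ppm DMSO stocks were mixed into sucrose solution in 24-well plates sealed with Parafilm. Aphid-infested pea seedlings were set on the membrane and the plate inverted so aphids fed through it. Mortality scored 5 days after infestation.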

[7] = tested on: Spodoptera littoralis (Egyptian Cotton Leaf Worm); assay: Example B8: Spodoptera littoralis (Egyptian cotton leaf worm), uptake by lettuce roots from agar, eggs; conditions: 144 h, test rate of 12.5 ppm, 6 days after infestation, compound absorbed by lettuce roots, read-out: control in at least one of the three categories (mortality, anti-feeding, or growth inhibition)
Text: Test compounds were applied by pipette from 10′000 ppm DMSO stock solutions into 24-well plates and mixed with agar. Lettuce seeds were placed onto the agar and the multi well plate was closed by another plate which contained also agar. After 7 days the compound was absorbed by the roots and the lettuce grew into the lid plate. The lettuce leaves were then cut off into the lid plate. Spodoptera eggs were pipetted through a plastic stencil onto a humid gel blotting paper and the lid plate was closed with it. The samples were assessed for mortality, anti-feedant effect and growth inhibition in comparison to untreated samples 6 days after infestation.
The following compounds gave an effect of at least 80% control in at least one of the three categories (mortality, anti-feeding, or growth inhibition) at a test rate of 12.5 ppm: P.58, P.93, P.94, P.95, P.130, P.254, P.256.

[8] = tested on: Myzus persicae (Green Peach Aphid); assay: Example B5: Myzus persicae (green peach aphid) feeding/contact activity, sunflower leaf discs; conditions: foliar, 144 h, application rate of 200 ppm, 6 days after infestation
Protocol: Sunflower leaf discs were placed onto agar in a 24-well microtiter plate and sprayed with aqueous test solutions prepared from 10′000 ppm DMSO stock solutions. After drying, the leaf discs were infested with an aphid population of mixed ages. The samples were assessed for mortality 6 days after infestation.

CC(Nc1ncnc2c(C(F)(F)F)cccc12)c1ncnn1-c1ccc(C#N)cn1 (stereo not drawn) [P.62, 6-[5-[1-[[8-(trifluoromethyl)quinazolin-4-yl]amino]ethyl]-1,2,4-triazol-1-yl]pyridine-3-carbonitrile]
≥ 80%: mortality at 500 ppm [1] | percent control (mortality, anti-feedant effect or growth inhibition) at 200 ppm [2] | percent control (mortality or growth inhibition) at 200 ppm [3]

CC(Nc1ccnc2c(Cl)cc(Cl)cc12)c1ncnn1-c1ncccn1 (stereo not drawn) [P.67, 6,8-dichloro-N-[1-(2-pyrimidin-2-yl-1,2,4-triazol-3-yl)ethyl]quinolin-4-amine]
≥ 80%: mortality at 500 ppm [1] | percent control (mortality, anti-feedant effect or growth inhibition) at 200 ppm [4] | percent control (mortality, anti-feedant effect or growth inhibition) at 200 ppm [2] | percent control (mortality or growth inhibition) at 200 ppm [3] | percent control (mortality or growth inhibition) at 200 ppm [5]

CC(c1ncnn1-c1ncccn1)N(C)c1ncnc2c(Cl)cc(Cl)cc12 (stereo not drawn) [P.66, 6,8-dichloro-N-methyl-N-[1-(2-pyrimidin-2-yl-1,2,4-triazol-3-yl)ethyl]quianzolin-4-amine]
≥ 80%: mortality at 500 ppm [1] | mortality at 12 ppm [6] | percent control (mortality, anti-feedant effect or growth inhibition) at 200 ppm [2] | percent control (mortality or growth inhibition) at 200 ppm [3] | percent control (mortality or growth inhibition) at 200 ppm [5]

CC(Nc1ncnc2ccc(C(F)(F)F)cc12)c1ncnn1-c1ccc(C#N)cn1 (stereo not drawn) [P.64, 6-[5-[1-[[6-(trifluoromethyl)quinazolin-4-yl]amino]ethyl]-1,2,4-triazol-1-yl]pyridine-3-carbonitrile]
≥ 80%: mortality at 500 ppm [1] | percent control (mortality, anti-feedant effect or growth inhibition) at 200 ppm [4] | percent control (mortality, anti-feedant effect or growth inhibition) at 200 ppm [2] | percent control (mortality or growth inhibition) at 200 ppm [3] | percent control (mortality or growth inhibition) at 200 ppm [5]

C[C@H](Nc1ccnc2c(Br)cc(C(F)(F)F)cc12)c1ncnn1-c1ccc(C#N)cn1 [P.256, 6-[5-[(1S)-1-[[8-bromo-6-(trifluoromethyl)-4-quinolyl]amino]ethyl]-1,2,4-triazol-1-yl]pyridine-3-carbonitrile]
≥ 80%: percent control (mortality, anti-feedant effect or growth inhibition) at 200 ppm [4] | percent control (mortality, anti-feedant effect or growth inhibition) at 200 ppm [2] | percent control (mortality or growth inhibition) at 200 ppm [3] | percent control (mortality, anti-feeding or growth inhibition) at 12.5 ppm [7] | percent control (mortality or growth inhibition) at 200 ppm [5]

CC(Nc1ncnc2c(C(F)(F)F)cc(Cl)cc12)c1nccnc1-c1ncccn1 (stereo not drawn) [P.130, 6-chloro-N-[1-(3-pyrimidin-2-ylpyrazin-2-yl)ethyl]-8-(trifluoromethyl)quinazolin-4-amine]
≥ 80%: mortality at 12 ppm [6] | mortality at 200 ppm [8] | percent control (mortality, anti-feedant effect or growth inhibition) at 200 ppm [4] | percent control (mortality, anti-feedant effect or growth inhibition) at 200 ppm [2] | percent control (mortality or growth inhibition) at 200 ppm [3] | percent control (mortality, anti-feeding or growth inhibition) at 12.5 ppm [7] | percent control (mortality or growth inhibition) at 200 ppm [5]

CC(Nc1ncnc2c(Cl)cc(Cl)cc12)c1ncnn1-c1ncccn1 (stereo not drawn) [P.68, 6,8-dichloro-N-[1-(2-pyrimidin-2-yl-1,2,4-triazol-3-yl)ethyl]quinazolin-4-amine]
≥ 80%: mortality at 500 ppm [1] | percent control (mortality, anti-feedant effect or growth inhibition) at 200 ppm [4] | percent control (mortality, anti-feedant effect or growth inhibition) at 200 ppm [2] | percent control (mortality or growth inhibition) at 200 ppm [3] | percent control (mortality or growth inhibition) at 200 ppm [5]

CC(Nc1ncnc2c(Cl)cc(Cl)cc12)c1ncnn1-c1ccc(C#N)cn1 (stereo not drawn) [P.65, 6-[5-[1-[(6,8-dichloroquinazolin-4-yl)amio]ethyl]-1,2,4-triazol-1-yl]pyridine-3-carbonitrile]
≥ 80%: mortality at 500 ppm [1] | percent control (mortality, anti-feedant effect or growth inhibition) at 200 ppm [2] | percent control (mortality or growth inhibition) at 200 ppm [3]

C[C@@H](c1ncnn1-c1ccc(C#N)cn1)N(C)c1ccnc2c(Br)cc(C(F)(F)F)cc12 [P.254, 6-[5-[(1S)-1-[[8-bromo-6-(trifluoromethyl)-4-quinolyl]-methyl-amino]ethyl]-1,2,4-triazol-1-yl]pyridine-3-carbonitrile]
≥ 80%: percent control (mortality, anti-feedant effect or growth inhibition) at 200 ppm [4] | percent control (mortality, anti-feedant effect or growth inhibition) at 200 ppm [2] | percent control (mortality or growth inhibition) at 200 ppm [3] | percent control (mortality, anti-feeding or growth inhibition) at 12.5 ppm [7] | percent control (mortality or growth inhibition) at 200 ppm [5]

Cc1nc(NC(C)c2ncnn2-c2ccc(C#N)cn2)c2cc(C(F)(F)F)cc(C(F)(F)F)c2n1 (stereo not drawn) [P.60, 6-[5-[1-[[2-methyl-6,8-bis(trifluoromethyl)quinazolin-4-yl]amino]ethyl]-1,2,4-triazol-1-yl]pyridine-3-carbonitrile]
≥ 80%: mortality at 500 ppm [1] | percent control (mortality, anti-feedant effect or growth inhibition) at 200 ppm [2] | percent control (mortality or growth inhibition) at 200 ppm [3]

CC(Nc1ncnc2c(C(F)(F)F)cc(Br)cc12)c1ncnn1-c1ccc(C#N)cn1 (stereo not drawn) [P.63, 6-[5-[1-[[6-bromo-8-(trifluoromethyl)quinazolin-4-yl]amino]ethyl]-1,2,4-triazol-1-yl]pyridine-3-carbonitrile]
≥ 80%: mortality at 500 ppm [1] | percent control (mortality, anti-feedant effect or growth inhibition) at 200 ppm [4] | percent control (mortality, anti-feedant effect or growth inhibition) at 200 ppm [2] | percent control (mortality or growth inhibition) at 200 ppm [3]

CC(c1ncnn1-c1ccc(C#N)cn1)N(C)c1ncnc2c(C(F)(F)F)cc(Br)cc12 (stereo not drawn) [P.52, 6-[5-[1-[[6-bromo-8-(trifluoromethyl)quinazolin-4-yl]-methyl-amino]ethyl]-1,2,4-triazol-1-yl]pyridine-3-carbonitrile]
≥ 80%: mortality at 500 ppm [1] | mortality at 12 ppm [6] | mortality at 200 ppm [8] | percent control (mortality, anti-feedant effect or growth inhibition) at 200 ppm [4] | percent control (mortality, anti-feedant effect or growth inhibition) at 200 ppm [2] | percent control (mortality or growth inhibition) at 200 ppm [3] | percent control (mortality or growth inhibition) at 200 ppm [5]

CC(c1ncnn1-c1ncccn1)N(C)c1ncnc2c(C(F)(F)F)cc(C(F)(F)F)cc12 (stereo not drawn) [P.58, N-methyl-N-[1-(2-pyrimidin-2-yl-1,2,4-triazol-3-yl)ethyl]-6,8-bis(trifluoromethyl)quina-zolin-4-amine]
≥ 80%: mortality at 500 ppm [1] | percent control (mortality, anti-feeding or growth inhibition) at 12.5 ppm [7]

CC(Nc1ncnc2c(C(F)(F)F)cc(C(F)(F)F)cc12)c1ncnn1-c1ccc(C#N)cn1 (stereo not drawn) [P.61, 6-[5-[1-[[6,8-bis(trifluoromethyl)quina-zolin-4-yl]amino]ethyl]-1,2,4-triazol-1-yl]pyridine-3-carbonitrile]
≥ 80%: mortality at 500 ppm [1] | percent control (mortality, anti-feedant effect or growth inhibition) at 200 ppm [4] | percent control (mortality, anti-feedant effect or growth inhibition) at 200 ppm [2] | percent control (mortality or growth inhibition) at 200 ppm [3]
